Patent US20030170643A1, “Regulation of apoB treatment and drug screening for cardiovascular and metabolic disorders or syndromes” (priority 1999, published 2003)

Assays:
Format in all cases: cell-based
rat hepatoma cells [1] = assay: TBARS assay of ROS in cell lysates of rat hepatoma cells; conditions: fatty acid alone
Experimental: FIG. 13 illustrates that either an iron chelator (DFX) or lipid antioxidants block DHA-stimulated apoB degradation and reactive oxygen species (ROS) production. Rat hepatoma cells were plated in culture wells and pre-incubated in media containing either DHA or DHA with one of the indicated compounds. Radiolabeled methionine/cysteine was added to the culture media for 15 minutes, after which time, the culture media were replaced by fresh media identical in composition except that radiolabeled methionine/cysteine were replaced by unlabeled methionone/cysteine. The recovery of labeled apoB100 ([^35S]-apoB100) from the media and cell lysate was determined at the indicated time points (with time 0 being the point when the fresh media were applied to the cells) by immunoprecipitating apoB species with a rabbit polyclonal antibody to rat apoB, resuspending the immunoprecipitates, combining aliquots from cell lysate and media samples from each well, resolving the protein contents of the combined immunoprecipitates by SDS-polyacrylamide gel electrophoresis (SDS-PAGE), and exposing the resultant gels to X-ray film in order to visualize the labeled apoB bands. In panel A are shown representative signals for radiolabeled apoB100 in each of the treatment conditions. […] For each treatment, there were at least 2 wells/treatment for each time point and the entire experiment repeated. The signal intensities of the apoB100 bands were quantified by densitometry and the mean relative recoveries (the % of the 15 minute, or initial, value still remaining at 120 minutes) ±SEM are shown in panel B. Note that the visual impressions observable in panel A are confirmed by the quantitative analysis; i.e., there is a substantial increase in labeled apoB100 recovery with any of the co-treatments. In panel C, the ROS content of the cell lysates at the end of the experiment was measured by the standard TBARS assay (Stocks et al., 1974, Clin Sci Mol Med 47,215-222). Note that compared to control (BSA), DHA induced a large increase in TBARS, as expected because of its high content on unsaturated bonds. […] FIG. 15 illustrates that AA stimulates apoB100 degradation and increases ROS. […] Note in the upper panel that the combined recovery (from two separate wells/time point) of radiolabeled apoB100 decreased from 15 to 120 minutes, indicating significant apoB100 degradation had occurred in the presence of AA. […] In addition to being a source of ROS, AA can also be converted by cyclooxygenase (COX) to bioactive prostaglandin compounds. We therefore repeated the experiment with AA but with co-treatment by the COX inhibitor aspirin.

rat hepatoma cells [2] = assay: Pulse-chase recovery of [35S]-apoB100 (apoB100 degradation) in rat hepatoma cells; conditions: for effect on DHA-stimulated apoB100 degradation: rat hepatoma cells or primary hepatocytes, co-treatment with DHA/BSA
Experimental: FIG. 13 illustrates that either an iron chelator (DFX) or lipid antioxidants block DHA-stimulated apoB degradation and reactive oxygen species (ROS) production. Rat hepatoma cells were plated in culture wells and pre-incubated in media containing either DHA or DHA with one of the indicated compounds. Radiolabeled methionine/cysteine was added to the culture media for 15 minutes, after which time, the culture media were replaced by fresh media identical in composition except that radiolabeled methionine/cysteine were replaced by unlabeled methionone/cysteine. The recovery of labeled apoB100 ([^35S]-apoB100) from the media and cell lysate was determined at the indicated time points (with time 0 being the point when the fresh media were applied to the cells) by immunoprecipitating apoB species with a rabbit polyclonal antibody to rat apoB, resuspending the immunoprecipitates, combining aliquots from cell lysate and media samples from each well, resolving the protein contents of the combined immunoprecipitates by SDS-polyacrylamide gel electrophoresis (SDS-PAGE), and exposing the resultant gels to X-ray film in order to visualize the labeled apoB bands. In panel A are shown representative signals for radiolabeled apoB100 in each of the treatment conditions. […] For each treatment, there were at least 2 wells/treatment for each time point and the entire experiment repeated. The signal intensities of the apoB100 bands were quantified by densitometry and the mean relative recoveries (the % of the 15 minute, or initial, value still remaining at 120 minutes) ±SEM are shown in panel B. Note that the visual impressions observable in panel A are confirmed by the quantitative analysis; i.e., there is a substantial increase in labeled apoB100 recovery with any of the co-treatments. In panel C, the ROS content of the cell lysates at the end of the experiment was measured by the standard TBARS assay (Stocks et al., 1974, Clin Sci Mol Med 47,215-222). Note that compared to control (BSA), DHA induced a large increase in TBARS, as expected because of its high content on unsaturated bonds.
FIG. 14 illustrates that DHA, but not saturated MA, induces apoB100 degradation in rat hepatoma cells. An experiment similar to the one described in FIG. 13 was performed, with the following changes: A) The immunoprecipitates from cell lysate and media samples were not combined, but separately analyzed. B) In addition to the 15 and 120 minute time points, apoB recovery was determined at 30 minutes. C) In addition to DHA, the effects of the fatty acid myristic (MA) were also tested because it has no unsaturated bonds and should not give rise to ROS.
FIG. 15 illustrates that AA stimulates apoB100 degradation and increases ROS. […] Note in the upper panel that the combined recovery (from two separate wells/time point) of radiolabeled apoB100 decreased from 15 to 120 minutes, indicating significant apoB100 degradation had occurred in the presence of AA. […] In addition to being a source of ROS, AA can also be converted by cyclooxygenase (COX) to bioactive prostaglandin compounds. We therefore repeated the experiment with AA but with co-treatment by the COX inhibitor aspirin.
To further explore the underlying mechanisms, rat hepatoma cells or primary hepatocytes were incubated with the Ω-3 fatty acid DHA complexed to BSA, while blocking candidate cellular mediators. […] There was, however, strong evidence against a role for calcium. Chelation of intracellular Ca^++ with BAPTA-AM, pharmacologic blockage of Ca^++ channels, depletion of the ER-calcium pool, and increasing Ca++ influx with an ionophore each had no effect. Because EGTA also chelates Fe^+++, and DHA is subject to Fe^+++-dependent peroxidation, the role of this lipid modification was examined. As shown in FIG. 13A and 13B, Desferroxamine (DFX), a chelator of Fe^+++, the antioxidant vitamin E (Vit E), and the synthetic antioxidant BHT, each inhibited DHA-stimulated apoB100 degradation by ˜60%.

rat primary hepatocytes = assay: Secretion of newly synthesized ([35S]methionine-labeled) VLDL-apoproteins by rat primary hepatocytes incubated with fatty acid/BSA complexes; conditions: fatty acid/BSA complexes (0.8 mM FA), VLDL fraction
Experimental: Cells were plated at a density of 2×10^6 cells/ml on 60-mm culture dishes (previously coated with poly-D-lysine) in modified M199 medium (M199, 1% fetal bovine serum [FBS], 1 mM nicotinamide, 0.1 nM insulin, 3 mg/ml choline, 1.1% L-glutamine, 1% BSA). After a four-hour attachment period, the medium was changed (modified M199 identical to the above except BSA was omitted and the concentration of FBS was raised to 10%). The next morning, cells were washed in serum-free medium three times, the experimental media added, and the cells incubated at 37° C. for 4-6 hours. The experimental medium consisted of serum-free RPMI containing the appropriate isotopes (see below) and fatty acids (FA) present at a final concentration of 0.8 mM complexed to BSA (FA:BSA molar ratio=5:1). The fatty acids used were oleic (OA), EPA, and DHA. Control medium was identical, except that BSA (0.16 mM) without fatty acids was present. For metabolic labeling of proteins, [^35S]methionine (70 uCi/ml) was included in the experimental media.
Following the 4-6 hour incubation period, the cell monolayer was washed, then solubilized in 0.1 M NaOH, and the cell protein determined by the Lowry method (Lowry, O. H., Rosebrough, N. J., Farr, A. L., and Randall, R. J. (1951) J Biol Chem 193, 265-75). Each 60 mm dish contained approximately 1-1.5 mg of cell protein. The secreted apoproteins were isolated from the medium either by ultracentrifugation or immunoprecipitation. To isolate the d<1.006 (VLDL) and 1.006<d<1.063 (IDL and LDL) g/ml density classes by centrifugation, sequential 20 hour runs at 48,000 rpm in a 50 Ti Beckman rotor at 4° C. were performed. After the first run at d=1.006, the upper VLDL layer was harvested and the density of the infranatant adjusted to 1.066 g/ml with solid KBr. After being overlaid with a KBr solution of density 1.063, the adjusted infranatant was re-centrifuged as before to isolate the IDL and LDL fractions. In some experiments, the HDL fraction (1.063<d<1.21) was isolated by sequential density centrifugation. Lipoprotein fractions were then dialyzed against 0.9% NaCl containing 10 mM unlabeled methionine, 0.2 mM PMSF, and 2 mM EDTA. Dialyzed lipoproteins were delipidated using 9 volumes of 100% isopropanol. Apoproteins were then collected by centrifugation in a Sorval HB-4 rotor at 10,000 rpm and 4° C. for 20 min, and dissolved in buffer (0.01 M phosphate, pH 7,1 % SDS, 10% glycerol), in preparation for electrophoresis.
To immunoprecipitate apoB or apoE from unfractionated conditioned medium, monospecific rabbit antiserum to rat apoB or apoE was used. Briefly, an aliquot of the medium was mixed with an equal volume of diluted antiserum (1:100 in PBS and 1% BSA) and incubated overnight at 4° C. Staph A was added in the form of immunoprecipitin, and the resultant precipitate containing the immune complexes was washed extensively, the staph A cells removed, and the isolated apoprotein dissolved in gel sample buffer (0.0625M tris/Cl, pH 6.8, 20% glycerol, 2% SDS). Electrophoretic separation of apoVLDL, apoIDL/LDL, and immunoprecipitates was accomplished using 3.5% acrylamide-18% glycerol gels as described (Maguire, G. F., Lee, M., and Connelly, P. W. (1989) J Lipid Res 30, 757-61). An aliquot of each sample was taken for scintillation counting, so that total radioactivity applied to each lane could be determined. Also, protein size standards were included in each gel.
After electrophoresis, the gels were stained, fixed, soaked in Enhance fluor solution, and dried following protocols supplied by the manufacturer. Dried gels were then exposed to X-ray film at −70° C. and signals on the resulting fluorograms were typically quantified by densitometry or phosphorimaging. Using the total radioactivity applied to each lane of the gel and the relative signal intensity of each band in that lane, the radioactivity associated with each apoprotein species was calculated. […]

Rat McA hepatoma cells = assay: Proteasome inhibition and apoB degradation in rat McA hepatoma cells
Experimental: FIG. 8 illustrates that EPA stimulates apoB degradation even when proteasomes are inhibited. Panel A: Rat McA hepatoma cells were incubated at 37° C. for 4 hr in [^35S]methionine-containing medium supplemented with either BSA (C) or EPA/BSA complexes (EPA) in the absence (EPA) or presence (EPA+LAC) of the proteasome inhibitor, lactacystin. Samples of cell lysates and conditioned media were subjected to immunoprecipitation analysis with anti-apoB antiserum, followed by SDS-PAGE and fluorography. In three separate experiments, the effect of lactacystin on EPA-induced degradation averaged less than 20%. Panel B: Rat McA hepatoma cells were incubated at 37° C. for 4 hr in [^355]methionine-containing medium supplemented with either BSA (Control) or BSA and lactacystin (LAC). After immunoprecipitation/SDS-PAGE analysis of the cell lysate and media samples, the resulting fluorograms were analyzed by phosphorimager and the recovery of total (cell+medium) apoB100 was quantified. The results shown (mean total recovery relative to control, ±SE) are based on 8 independent determinations. * indicates P<0.001, LAC vs. control.
To determine whether the proteasome mediated Ω-3 fatty acid-induced apoB degradation, rat hepatoma cells were incubated at 37° C. for 4 hr in [^35S]methionine-containing medium supplemented with either BSA or EPA/BSA complexes in the absence or presence of the proteasome inhibitor, lactacystin ([…]; purchased from the laboratory of Dr. E. J. Corey, Harvard University). Samples of cell lysates and conditioned media were subjected to immunoprecipitation analysis with anti-apoB antiserum, followed by SDS-PAGE and fluorography. To determine whether Ω-3 fatty acids targeted apoB to lysosomal degradation, a similar experiment was performed substituting ammonium chloride (40 mM) for lactacystin.

In the case of CCCCC/C=C\C/C=C\C/C=C\C/C=C\CCCC(=O)O [AA, arachidonic acid], the “reactive oxygen species (ROS), TBARS assay, fatty acid compared to BSA” value (rat hepatoma cells [1]) is reported as “increases”, the “AA-induced apoB100 degradation with co-treatment by the COX inhibitor aspirin” value (rat hepatoma cells [2]; AA plus aspirin) is reported as “still induced apoB100 degradation” and the “apoB100 degradation induced by the fatty acid” value (rat hepatoma cells [2]; rat hepatoma cells, 15 to 120 minutes chase) is reported as “stimulates the degradation of apoB”.
In the case of CC(=O)OCOC(=O)CN(CC(=O)OCOC(C)=O)c1ccccc1OCCOc1ccccc1N(CC(=O)OCOC(C)=O)CC(=O)OCOC(C)=O [BAPTA-AM], the “effect on DHA-stimulated apoB100 degradation” value (rat hepatoma cells [2]) is reported as “no effect”.
For O=C(O)CN(CC(=O)O)c1ccccc1OCCOc1ccccc1N(CC(=O)O)CC(=O)O [BAPTA], the “effect on DHA-stimulated apoB100 degradation” value (rat hepatoma cells [2]) was “blocked”.
With Cc1cc(C(C)(C)C)c(O)c(C(C)(C)C)c1 [BHT, butylhydroxytoluene] the “inhibition of DHA-stimulated apoB100 degradation” value (rat hepatoma cells [2]; co-treatment with DHA, FIG. 13A and 13B) was about 60%.
O=C(O)CN(CCOCCOCCN(CC(=O)O)CC(=O)O)CC(=O)O [EGTA] was tested, and the “effect on DHA-stimulated apoB100 degradation” value (rat hepatoma cells [2]) was “blocked”.
CC/C=C\C/C=C\C/C=C\C/C=C\C/C=C\CCCC(=O)O [EPA, eicosapentaenoic acid] was tested, and the “secretion of newly synthesized VLDL-ApoB48, percentage of secretion observed with BSA alone” value (rat primary hepatocytes) was 45 ± 3 percentage, the “secretion of newly synthesized VLDL-ApoB100, percentage of secretion observed with BSA alone” value (rat primary hepatocytes) was 25 ± 2 percentage and the “secretion of newly synthesized VLDL-ApoE, percentage of secretion observed with BSA alone” value (rat primary hepatocytes) was 45 ± 1 percentage.
With CCCCCCCCCCCCCC(=O)O [MA, myristic acid] the “reactive oxygen species (ROS), TBARS assay, fatty acid compared to BSA” value (rat hepatoma cells [1]) was “does not increase”.
In the case of CC(=O)Oc1ccccc1C(=O)O [aspirin], the “effect on DHA-stimulated apoB100 degradation” value (rat hepatoma cells [2]) is reported as “no effect”.
In the case of CC(=O)N[C@@H](CSC(=O)[C@]1([C@@H](O)C(C)C)NC(=O)[C@H](C)[C@@H]1O)C(=O)O [lactacystin], the “inhibition of EPA-induced apoB degradation” value (Rat McA hepatoma cells; FIG. 8 Panel A) is reported as “little if any inhibition”, the “apoB100 recovery in the absence of Ω-3 fatty acids” value (Rat McA hepatoma cells; FIG. 8 Panel B, total (cell+medium), P<0.001 vs control) is reported as “increased” and the “effect of lactacystin on EPA-induced apoB degradation” value (Rat McA hepatoma cells; average of three separate experiments, 4 hr) is reported as “less than 20%”.
